Measured values taken from patent US9879041B2, “Saccharide dendritic cluster compounds as inhibitors of BACE-1” (Victoria Link Limited, priority 2012, dated 2018).

What was measured:
Aβ1-40 = experiment: Brain slice assay, soluble Aβ1-40 in medium by ELISA; assay type: cell-based, Transgenic TG2576 mice; conditions: TG2576 mouse brain slices; 1, 10 and 100 μg/ml; 96 hours vs. 48 hours
Procedure: Transgenic TG2576 mice expressing the human SWE-mutated amyloid precursor protein are sacrificed by cervical dislocation at 8-10 months of age. The brain is removed and 400 μm coronal sections are obtained using a manual tissue chopper (Leica Microsystems). Slices are washed briefly in HBSS (Hank balanced salt solution, Life Technologies) supplemented with 4.5 mg/ml glucose (Sigma-Aldrich) and 3.75 μg/ml amphotericin B (Sigma-Aldrich) and transferred to a transwell plate (Costar 3396 HTS 24 well transwell plate with 0.4 μm polycarbonate membrane) in 1 ml of 50% MEM (minimal essential medium, Life Technologies) supplemented with 25% heat-inactivated horse serum (Life Technologies), 25% HBSS, 0.5 mM glutamine (Life Technologies), 4.5 mg/ml glucose and 3.75 μg/ml amphotericin B. Slices are incubated 48 hours at 37 C, 5% CO2. […] Soluble Aμ1-40 in the medium is quantified using a SensoLyte™ Anti-Human βeta-Amyloid (1-40) ELISA kit (Anaspec) in accordance with the manufacturer's instructions. […] The color reaction is stopped with 50 μl of Stop Solution and the plate is read at 450 nm using an absorbance plate reader (Thermo Multiskan EX). The amount of Aβ-40 is quantified by reference to a standard curve of Aβ1-40 (supplied in the SensoLyte™ kit). Data are expressed as a percentage of the Aβ1-40 present at 96 hours vs. 48 hours for each condition.

recombinant human BACE-1 = biological target: T1, recombinant human BACE-1 (Homo sapiens, UniProt P56817); experiment: BACE-1 inhibition by in vitro FRET peptide cleavage assay; assay type: biochemical; conditions: pH 4.5, 1 h, 25° C.
T1 construct: purchased R & D Systems 931-AS
T1 sequence (P56817 46-501): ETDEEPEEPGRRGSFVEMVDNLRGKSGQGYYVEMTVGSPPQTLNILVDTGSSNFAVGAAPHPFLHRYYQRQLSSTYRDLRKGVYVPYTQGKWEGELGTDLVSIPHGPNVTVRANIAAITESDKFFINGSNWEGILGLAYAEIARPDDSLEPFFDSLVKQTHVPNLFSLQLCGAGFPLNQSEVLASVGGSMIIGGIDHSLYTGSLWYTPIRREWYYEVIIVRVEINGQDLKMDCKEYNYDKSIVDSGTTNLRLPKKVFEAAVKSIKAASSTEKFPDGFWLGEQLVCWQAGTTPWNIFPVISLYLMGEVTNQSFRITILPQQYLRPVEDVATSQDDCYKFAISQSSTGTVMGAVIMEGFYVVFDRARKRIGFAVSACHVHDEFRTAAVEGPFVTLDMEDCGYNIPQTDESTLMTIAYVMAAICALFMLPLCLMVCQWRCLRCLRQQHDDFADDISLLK
Procedure: The ability of compounds of the invention to inhibit BACE-1 cleavage of APP is assessed using a fluorescent resonance energy transfer (FRET) peptide cleavage assay employing the FRET peptide HiLyte 488-Glu-Val-Asn-Leu-Asp-Ala-Glu-Phe-Lys(QXL520)-OH (Anaspec, Inc., CA, USA; Cat no. 60604-01). When intact, the amino terminal fluorophore is quenched, but upon enzymatic cleavage the fluorophore is released from quencher and fluoresces (520 nm). Assays are performed in triplicate in 96 well black plates (20 mM sodium acetate, 0.1% Triton-X-100, pH 4.5; 2.2 ng peptide per well and 25 ng/well of recombinant human BACE-1 (R & D Systems Cat no. 931-AS). The appropriate controls for enzyme activity (substrate plus enzyme, and substrate only) are employed and plates are incubated (1 h, 25° C., with activity stopped with 2.5 M sodium acetate). Compounds of the invention are added in the concentration range from 100-0.0001 μg/mL. Fluorescence 480ex/520em is measured on a Polarstar plate reader (BMG LabTechnologies, UK) and data are analysed by plotting log10 concentration of compound against percent inhibition and fitting a logistic dose response sigmoidal curve using OriginPro 8 (OriginLabs, Mass, USA).

bovine Factor Xa = biological target: T2, bovine Factor Xa (Bos taurus, UniProt P00743); experiment: Factor Xa anticoagulant assay (antithrombin-III mediated inactivation of Factor Xa); assay type: biochemical; conditions: dose range 0.004 to 50 μg/ml
T2 construct: purchased Thermo Scientific 32521
T2 sequence (P01008 33-464 partner): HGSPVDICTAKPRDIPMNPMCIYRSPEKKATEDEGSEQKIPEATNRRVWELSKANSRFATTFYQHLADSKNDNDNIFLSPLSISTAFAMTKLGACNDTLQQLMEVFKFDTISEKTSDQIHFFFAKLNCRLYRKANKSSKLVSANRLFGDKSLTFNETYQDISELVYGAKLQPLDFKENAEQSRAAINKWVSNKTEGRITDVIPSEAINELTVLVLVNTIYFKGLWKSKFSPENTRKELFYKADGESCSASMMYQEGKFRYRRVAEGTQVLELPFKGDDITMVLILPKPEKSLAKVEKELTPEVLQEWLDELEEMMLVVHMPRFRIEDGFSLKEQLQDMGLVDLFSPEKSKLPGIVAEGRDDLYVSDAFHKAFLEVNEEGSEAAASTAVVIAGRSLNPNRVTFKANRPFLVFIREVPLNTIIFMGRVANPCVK
T2 sequence (P00743 234-492 limits assumed): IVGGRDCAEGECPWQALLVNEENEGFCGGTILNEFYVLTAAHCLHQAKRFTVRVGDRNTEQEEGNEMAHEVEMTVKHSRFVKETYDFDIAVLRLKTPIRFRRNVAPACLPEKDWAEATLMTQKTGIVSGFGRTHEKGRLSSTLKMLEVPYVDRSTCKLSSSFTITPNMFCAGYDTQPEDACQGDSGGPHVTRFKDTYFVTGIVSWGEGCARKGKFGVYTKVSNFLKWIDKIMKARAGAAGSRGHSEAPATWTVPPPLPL
Procedure: The plate is incubated for two minutes at 37° C. […] 19 μl of 2.5 mM chromogenic substrate (American Diagnostica Inc. Spectrozyme FXa Product No 222L) in assay buffer is added to each well and incubated for 2 hours at 37° C., followed by addition of 5 μl of 30% acetic acid to each well. Absorbance at 405 nm is read on a multiplate reader.

SMILES | ability to lower amounts of Aβ1-40 in brain slices (Aβ1-40) | IC50 (recombinant human BACE-1) | ability to accelerate antithrombin-III mediated inactivation of Factor Xa, as measured by cleavage of a peptide substrate (bovine Factor Xa)
CC(=O)NC1C(OC2C(C(=O)O)OC(OCCCCCCNC(=O)CCCCCCCNC(=O)CCOCC(COCCC(=O)NCCCCCCCC(=O)NCCCCCCOC3OC(C(=O)O)C(OC4OC(COS(=O)(=O)O)C(O)C(O)C4NC(C)=O)C(O)C3O)(COCCC(=O)NCCCCCCCC(=O)NCCCCCCOC3OC(C(=O)O)C(OC4OC(COS(=O)(=O)O)C(O)C(O)C4NC(C)=O)C(O)C3O)COCCC(=O)NCCCCCCCC(=O)NCCCCCCOC3OC(C(=O)O)C(OC4OC(COS(=O)(=O)O)C(O)C(O)C4NC(C)=O)C(O)C3O)C(O)C2O)OC(COS(=O)(=O)O)C(O)C1O (stereo not shown) [Compound 18a] | demonstrate the ability to lower amounts of Aβ1-40 | – | –
CC(=O)NC1C(OC2C(C(=O)O)OC(OCCCCCCNC(=O)CCCCCCCNC(=O)CCOCC(COCCC(=O)NCCCCCCCC(=O)NCCCCCCOC3OC(C(=O)O)C(OC4OC(COS(=O)(=O)O)C(O)C(O)C4NC(C)=O)C(O)C3O)(COCCC(=O)NCCCCCCCC(=O)NCCCCCCOC3OC(C(=O)O)C(OC4OC(COS(=O)(=O)O)C(O)C(O)C4NC(C)=O)C(O)C3O)COCCC(=O)NCCCCCCCC(=O)NCCCCCCOC3OC(C(=O)O)C(OC4OC(COS(=O)(=O)O)C(O)C(O)C4NC(C)=O)C(O)C3O)C(O)C2O)OC(COS(=O)(=O)O)C(O)C1O (stereo not shown) [Compound 18b] | – | ~3100 nM | do not display any measurable ability
CC(=O)NC1C(OC2C(C(=O)O)OC(OC3C(COS(=O)(=O)O)OC(OC4C(C(=O)O)OC(OCCCCCCNC(=O)CCCCCCCNC(=O)CCOCC(COCCC(=O)NCCCCCCCC(=O)NCCCCCCOC5OC(C(=O)O)C(OC6OC(COS(=O)(=O)O)C(OC7OC(C(=O)O)C(OC8OC(COS(=O)(=O)O)C(O)C(O)C8NC(C)=O)C(O)C7O)C(O)C6NC(C)=O)C(O)C5O)(COCCC(=O)NCCCCCCCC(=O)NCCCCCCOC5OC(C(=O)O)C(OC6OC(COS(=O)(=O)O)C(OC7OC(C(=O)O)C(OC8OC(COS(=O)(=O)O)C(O)C(O)C8NC(C)=O)C(O)C7O)C(O)C6NC(C)=O)C(O)C5O)COCCC(=O)NCCCCCCCC(=O)NCCCCCCOC5OC(C(=O)O)C(OC6OC(COS(=O)(=O)O)C(OC7OC(C(=O)O)C(OC8OC(COS(=O)(=O)O)C(O)C(O)C8NC(C)=O)C(O)C7O)C(O)C6NC(C)=O)C(O)C5O)C(O)C4O)C(NC(C)=O)C3O)C(O)C2O)OC(COS(=O)(=O)O)C(O)C1O (stereo not shown) [Compound 18c] | – | ~39.5 nM | do not display any measurable ability
CC(=O)NC1C(OCCCCCCNC(=O)CCOCC(COCCC(=O)NCCCCCCOC2OC(COS(=O)(=O)O)C(O)C(O)C2NC(C)=O)(COCCC(=O)NCCCCCCOC2OC(COS(=O)(=O)O)C(O)C(O)C2NC(C)=O)COCCC(=O)NCCCCCCOC2OC(COS(=O)(=O)O)C(O)C(O)C2NC(C)=O)OC(COS(=O)(=O)O)C(O)C1O (stereo not shown) [Compound 18e] | – | ~25600 nM | do not display any measurable ability
CC(=O)NC1C(OCCCCCCNC(=O)CCCCCCCNC(=O)CCOCC(COCCC(=O)NCCCCCCCC(=O)NCCCCCCOC2OC(COS(=O)(=O)O)C(O)C(O)C2NC(C)=O)(COCCC(=O)NCCCCCCCC(=O)NCCCCCCOC2OC(COS(=O)(=O)O)C(O)C(O)C2NC(C)=O)COCCC(=O)NCCCCCCCC(=O)NCCCCCCOC2OC(COS(=O)(=O)O)C(O)C(O)C2NC(C)=O)OC(COS(=O)(=O)O)C(O)C1O (stereo not shown) [Compound 18h] | – | 794 to 1980 nM | do not display any measurable ability
CC(=O)NC1C(OC2C(C(=O)O)OC(OCCCCCCNC(=O)CCCCCCCNC(=O)CCOCC(COCCC(=O)NCCCCCCCC(=O)NCCCCCCOC3OC(C(=O)O)C(OC4OC(COS(=O)(=O)O)C(O)C(O)C4NC(C)=O)C(O)C3OS(=O)(=O)O)(COCCC(=O)NCCCCCCCC(=O)NCCCCCCOC3OC(C(=O)O)C(OC4OC(COS(=O)(=O)O)C(O)C(O)C4NC(C)=O)C(O)C3OS(=O)(=O)O)COCCC(=O)NCCCCCCCC(=O)NCCCCCCOC3OC(C(=O)O)C(OC4OC(COS(=O)(=O)O)C(O)C(O)C4NC(C)=O)C(O)C3OS(=O)(=O)O)C(OS(=O)(=O)O)C2O)OC(COS(=O)(=O)O)C(O)C1O (stereo not shown) [Compound 20a] | – | ~14.1 nM | –
CC(=O)NC1C(OC2C(C(=O)O)OC(OCCCCCCNC(=O)CCCCCCCNC(=O)CCOCC(COCCC(=O)NCCCCCCCC(=O)NCCCCCCOC3OC(C(=O)O)C(OC4OC(COS(=O)(=O)O)C(O)C(O)C4NC(C)=O)C(O)C3OS(=O)(=O)O)(COCCC(=O)NCCCCCCCC(=O)NCCCCCCOC3OC(C(=O)O)C(OC4OC(COS(=O)(=O)O)C(O)C(O)C4NC(C)=O)C(O)C3OS(=O)(=O)O)COCCC(=O)NCCCCCCCC(=O)NCCCCCCOC3OC(C(=O)O)C(OC4OC(COS(=O)(=O)O)C(O)C(O)C4NC(C)=O)C(O)C3OS(=O)(=O)O)C(OS(=O)(=O)O)C2O)OC(COS(=O)(=O)O)C(O)C1O (stereo not shown) [Compound 20b] | – | ~56.4 nM | do not display any measurable ability
CC(=O)NC1C(OC2C(C(=O)O)OC(OC3C(COS(=O)(=O)O)OC(OC4C(C(=O)O)OC(OCCCCCCNC(=O)CCCCCCCNC(=O)CCOCC(COCCC(=O)NCCCCCCCC(=O)NCCCCCCOC5OC(C(=O)O)C(OC6OC(COS(=O)(=O)O)C(OC7OC(C(=O)O)C(OC8OC(COS(=O)(=O)O)C(O)C(O)C8NC(C)=O)C(O)C7OS(=O)(=O)O)C(O)C6NC(C)=O)C(O)C5OS(=O)(=O)O)(COCCC(=O)NCCCCCCCC(=O)NCCCCCCOC5OC(C(=O)O)C(OC6OC(COS(=O)(=O)O)C(OC7OC(C(=O)O)C(OC8OC(COS(=O)(=O)O)C(O)C(O)C8NC(C)=O)C(O)C7OS(=O)(=O)O)C(O)C6NC(C)=O)C(O)C5OS(=O)(=O)O)COCCC(=O)NCCCCCCCC(=O)NCCCCCCOC5OC(C(=O)O)C(OC6OC(COS(=O)(=O)O)C(OC7OC(C(=O)O)C(OC8OC(COS(=O)(=O)O)C(O)C(O)C8NC(C)=O)C(O)C7OS(=O)(=O)O)C(O)C6NC(C)=O)C(O)C5OS(=O)(=O)O)C(OS(=O)(=O)O)C4O)C(NC(C)=O)C3O)C(OS(=O)(=O)O)C2O)OC(COS(=O)(=O)O)C(O)C1O (stereo not shown) [Compound 20c] | – | ~1.75 nM | do not display any measurable ability
O=C(CCCCCCCNC(=O)CCOCC(COCCC(=O)NCCCCCCCC(=O)NCCCCCCOC1OC(C(=O)O)C(OC2OC(COS(=O)(=O)O)C(OC3OC(C(=O)O)C(OC4OC(COS(=O)(=O)O)C(O)C(O)C4NS(=O)(=O)O)C(O)C3OS(=O)(=O)O)C(O)C2NS(=O)(=O)O)C(O)C1OS(=O)(=O)O)(COCCC(=O)NCCCCCCCC(=O)NCCCCCCOC1OC(C(=O)O)C(OC2OC(COS(=O)(=O)O)C(OC3OC(C(=O)O)C(OC4OC(COS(=O)(=O)O)C(O)C(O)C4NS(=O)(=O)O)C(O)C3OS(=O)(=O)O)C(O)C2NS(=O)(=O)O)C(O)C1OS(=O)(=O)O)COCCC(=O)NCCCCCCCC(=O)NCCCCCCOC1OC(C(=O)O)C(OC2OC(COS(=O)(=O)O)C(OC3OC(C(=O)O)C(OC4OC(COS(=O)(=O)O)C(O)C(O)C4NS(=O)(=O)O)C(O)C3OS(=O)(=O)O)C(O)C2NS(=O)(=O)O)C(O)C1OS(=O)(=O)O)NCCCCCCOC1OC(C(=O)O)C(OC2OC(COS(=O)(=O)O)C(OC3OC(C(=O)O)C(OC4OC(COS(=O)(=O)O)C(O)C(O)C4NS(=O)(=O)O)C(O)C3OS(=O)(=O)O)C(O)C2NS(=O)(=O)O)C(O)C1OS(=O)(=O)O (stereo not shown) [Compound 22a] | – | ~1.67 nM | do not display any measurable ability
